Here are results for one compound from ChEMBL document CHEMBL4673222, “Discovery of a Bioactive Inhibitor with a New Scaffold for Cystathionine γ-Lyase” (J Med Chem, 2019).

In assay [1] the test system is Cystathionine gamma-lyase (Homo sapiens), P32929 [R119K]. Briefly: Inhibition of human CSE R119K mutant expressed in HEK293T cells assessed as reduction in H2S contents at 200 to 500 uM by lead acetate assay. It counts as cell-based. To be noted: dose 200-500 µM.
Assay [2] concerns Cystathionine gamma-lyase (Homo sapiens), P32929 [R119A]. Briefly: Inhibition of human CSE R119A mutant expressed in HEK293T cells assessed as reduction in H2S contents at 200 to 500 uM by lead acetate assay. It counts as cell-based. To be noted: dose 200-500 µM.
The target in assay [3] is Cystathionine gamma-lyase (Homo sapiens, UniProt P32929, Y114F). The assay is described as follows: Inhibition of human CSE Y114F mutant expressed in HEK293T cells assessed as reduction in H2S contents. It counts as cell-based.
Assay [4] has as its target Cystathionine gamma-lyase (Homo sapiens, UniProt P32929, R119A). The assay is described as follows: Inhibition of human CSE R119A mutant expressed in HEK293T cells assessed as reduction in H2S contents. It counts as cell-based.
Assay [5] is filed under the species Homo sapiens. The assay is described as follows: Selectivity index, ratio of IC50 for human CSE R119K mutant expressed in HEK293T cells to IC50 for wild type human CSE expressed in HEK293T cells. It is filed as cell-based.
The target of assay [6] is Cystathionine gamma-lyase (Mus musculus) (UniProt Q8VCN5). The assay is described as follows: Inhibition of CSE in mouse RAW264.7 cells assessed as increase in levels of cellular H-cys level at 1 to 500 uM by ELISA. It is filed as cell-based. As to conditions: dose 1-500 µM. On the technique in general: An ELISA detects its analyte on a solid surface through an enzyme-linked reagent.

For assay [7] the target is unchanged. Briefly: Potency index, ratio of inhibition activity of PAG to test compound for inhibition of CSE in mouse RAW264.7 cells assessed as reduction in amount of released H2S level by lead acetate method. It counts as cell-based.
For assay [8], the species on record is Homo sapiens. The assay is described as follows: Selectivity index, ratio of IC50 for human CSE R119K mutant to IC50 for wild type human CSE.
Assay [9] is filed under the species Homo sapiens. The assay is described as follows: Selectivity index, ratio of IC50 for human CSE Y114F mutant to IC50 for wild type human CSE.
The nature of assay [10]: Binding affinity to H2S assessed as absorbing of released H2S up to 100 uM in presence of NaHS as H2S donor. To be noted: dose microM <=100.
The species named for assay [11] is Homo sapiens. Briefly: Selectivity index, ratio of IC50 for human CBS to IC50 for human CSE.

The source made the active and inactive calls. The calls are words filed in the database; no cut-off is given here.

Cystathionine gamma-lyase (Mus musculus), sequence (Q8VCN5 whole entry): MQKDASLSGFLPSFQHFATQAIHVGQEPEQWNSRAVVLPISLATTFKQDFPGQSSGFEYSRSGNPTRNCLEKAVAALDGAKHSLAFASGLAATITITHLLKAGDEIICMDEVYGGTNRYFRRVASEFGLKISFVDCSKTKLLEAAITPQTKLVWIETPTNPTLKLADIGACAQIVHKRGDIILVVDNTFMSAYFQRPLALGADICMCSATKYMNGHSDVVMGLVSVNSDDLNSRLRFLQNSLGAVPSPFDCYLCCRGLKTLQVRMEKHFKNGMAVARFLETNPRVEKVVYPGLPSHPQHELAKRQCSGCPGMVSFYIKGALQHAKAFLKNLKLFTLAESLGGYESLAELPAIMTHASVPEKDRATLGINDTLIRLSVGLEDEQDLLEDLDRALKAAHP
Cystathionine gamma-lyase (Homo sapiens, UniProt P32929, Y114F), sequence (P32929 whole entry Y114F): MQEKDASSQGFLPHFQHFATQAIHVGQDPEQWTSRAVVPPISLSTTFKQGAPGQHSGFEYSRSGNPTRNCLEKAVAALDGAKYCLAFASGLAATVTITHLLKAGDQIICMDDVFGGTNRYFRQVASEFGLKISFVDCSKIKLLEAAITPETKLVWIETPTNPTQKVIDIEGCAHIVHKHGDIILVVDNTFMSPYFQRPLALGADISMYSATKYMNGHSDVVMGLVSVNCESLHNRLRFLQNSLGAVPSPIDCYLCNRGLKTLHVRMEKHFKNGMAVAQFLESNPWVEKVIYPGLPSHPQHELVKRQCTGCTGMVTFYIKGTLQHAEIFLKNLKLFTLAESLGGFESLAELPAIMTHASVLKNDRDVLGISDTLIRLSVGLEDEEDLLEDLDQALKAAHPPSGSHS
Cystathionine gamma-lyase (Homo sapiens), P32929 [R119A], sequence (P32929 whole entry R119A): as the sequence (P32929 whole entry Y114F) above, with F114Y, R119A counted along it
Cystathionine gamma-lyase (Homo sapiens, UniProt P32929, R119A), sequence (P32929 whole entry R119A): as the sequence (P32929 whole entry Y114F) above, with F114Y, R119A counted along it
Cystathionine gamma-lyase (Homo sapiens), P32929 [R119K], sequence (P32929 whole entry R119K): as the sequence (P32929 whole entry Y114F) above, with F114Y, R119K counted along it

As to `O=C(O)C1=CC(=C(c2ccc(O)c(C(=O)O)c2)c2ccc(O)c(C(=O)O)c2)C=CC1=O` [AURINTRICARBOXYLIC ACID], the inhibition result in assay [1] and in assay [2] was “inactive” throughout. Also, the half-inhibitory concentration (IC50) (in general, the concentration that gives 50% inhibition) is 283 µM in assay [3] and 371 µM in assay [4]. The Ratio IC50 in assay [5] turned out to be 6; in assay [8], 26; in [9], 29.6; in [11] it was 137. Further, the inhibition entry in assay [6] is “Active”. In addition, in [7], the Ratio worked out at 8. For the same compound, the result in assay [10] was inactive.
